Reference: patent US6706663B2, “Herbicidal 3-heterocyclic substituted benzisothiazole and benzisoxazole compounds” (Wyeth, priority 2000, dated 2004)

Assays:
[1] = system: GLXMAW (Soybean, Williams); assay: Preemergence herbicidal evaluation; assay type: in vivo, Glycine max, (L.) Merr. cv Williams; details: preemergence, rated 4-5 weeks after treatment
[2] = system: CYPIR (Cyperus iria); assay: Flooded paddy, postemergence weed control; assay type: in vivo; details: postemergence weeds, rated 3-4 weeks after treatment
Description: (§1) Results of herbicide evaluation are expressed on a rating scale (0-9). The scale is based upon a visual observation of plant stand, vigor, malformation, size, chlorosis and overall plant appearance as compared with a control.
(§2) Plastic containers containing weeds which are 3 to 5 cm tall and rice seedlings at the 1.5 to 2.5 leaf stage are flooded with water. The water is maintained at 1.5 to 3 cm above the soil surface for the duration of the experiment. Test compounds are applied as aqueous/acetone mixtures 50/50 v/v directly into the flood water to provide the equivalent of about 0.0320 to 0.2500 kg/ha of active ingredient. The treated containers are placed on greenhouse benches and cared for in accordance with conventional greenhouse procedures. Three to four weeks after treatment, the test is terminated and each container is examined and herbicidal effect rated according to the rating system provided in Example 87. The compounds evaluated are identified in Example 87 and plant species used are identified in Example 89.

[3] = system: ORYSAT (Rice, Tebonnet); assay: Preemergence herbicidal evaluation; assay type: in vivo, Oryza sativa, (L.) Tebonnet; details: preemergence, rated 4-5 weeks after treatment
[4] = system: CYPSE (Cyperus serotinus); assay: Flooded paddy, postemergence weed control; assay type: in vivo, Rottb.; details: postemergence weeds, rated 3-4 weeks after treatment
Description: as §1, §2

[5] = system: AMBEL (Ambrosia artemisifolia); assay: Postemergence herbicidal evaluation; assay type: in vivo, L.
How it was run: (§3)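 Seedlings grown for about two weeks were sprayed postemergence and then kept under standard greenhouse care. Injury was rated visually 4–5 weeks after treatment on a 0–9 scale against untreated controls, and ratings from repeat tests were averaged.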

[6] = system: CASOB (Cassia obtusifolia); assay: Postemergence herbicidal evaluation; assay type: in vivo, L.
How it was run: as §3

[7] = system: CHEAL (Chenopodium album); assay: Postemergence herbicidal evaluation; assay type: in vivo, L.
How it was run: as §3

[8] = system: CYPIR (Cyperus iria); assay: Flooded paddy, preemergence weed control; assay type: in vivo; details: rated 3-4 weeks after treatment, 0-9 rating scale
How it was run: (§4)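 Scoring used a 0-9 visual scale relative to control. Before that, seeds or propagules were planted shallowly in silt loam and flooded to 1.5–3 cm, a depth maintained throughout, with greenhouse care during the test.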

[9] = system: ECHORC (Echinochloa oryzoides); assay: Flooded paddy, preemergence weed control; assay type: in vivo, Echinochloa oryzoides (Ard.) Fritsch.; details: rated 3-4 weeks after treatment, 0-9 rating scale
How it was run: as §4

[10] = system: TRZAWR (Wheat, Winter, cv Riband); assay: Preemergence herbicidal evaluation; assay type: in vivo, Triticum aestivum; details: preemergence, rated 4-5 weeks after treatment
How it was run: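 Test compound is applied in aqueous acetone to cups just after seeding. Cups are watered and maintained on greenhouse benches. Each cup is scored 0–9 by eye relative to a control after four to five weeks.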

[11] = system: IPOHE (Ipomoea hederacea); assay: Preemergence herbicidal evaluation; assay type: in vivo, (L.) Jacq.; details: preemergence, rated 4-5 weeks after treatment
[12] = system: MOOVA (Monochoria vaginalis); assay: Flooded paddy, postemergence weed control; assay type: in vivo, Presl.; details: postemergence weeds, rated 3-4 weeks after treatment
Description: as §1, §2

[13] = system: ECHCG (Echinochloa crus-galli); assay: Postemergence herbicidal evaluation; assay type: in vivo, (L.) Beau
How it was run: as §3

[14] = system: ORYSAT (Rice, Tebonnet); assay: Flooded paddy, post-transplant and postemergence rice tolerance; assay type: in vivo, Oryza sativa, (L.) Tebonnet; details: post-transplant rice, rated 3-4 weeks after treatment
Description: as §1, §2

[15] = system: ZEAMX (Corn, Field); assay: Postemergence herbicidal evaluation; assay type: in vivo, Zea mays, L.
How it was run: as §3

[16] = system: ECHORC (Echinochloa oryzoides); assay: Flooded paddy, postemergence weed control; assay type: in vivo, Echinochloa oryzoides (Ard.) Fritsch.; details: postemergence weeds, rated 3-4 weeks after treatment
Description: as §1, §2

[17] = system: SAGPY (Sagittaria pygmaea); assay: Flooded paddy, preemergence weed control; assay type: in vivo, L.; details: rated 3-4 weeks after treatment, 0-9 rating scale
How it was run: as §4

[18] = system: SAGPY (Sagittaria pygmaea); assay: Flooded paddy, postemergence weed control; assay type: in vivo, L.; details: postemergence weeds, rated 3-4 weeks after treatment
Description: as §1, §2

[19] = system: ORYSAT (Rice, Tebonnet); assay: Postemergence herbicidal evaluation; assay type: in vivo, Oryza sativa, (L.) Tebonnet
How it was run: as §3

Cn1c(C(F)(F)F)cc(=O)n(-c2ccc3snc(-c4ccsc4)c3c2)c1=O [Compound 1, 1-methyl-3-[3-(3-thienyl)-1,2-benzisothiazol-5-yl]-6-(trifluoromethyl)uracil]
GLXMAW preemergence herbicidal rating ([1]; Rate 0.0620 kg/ha): 7.0 | GLXMAW preemergence herbicidal rating ([1]; Rate 0.1250 kg/ha): 9.0 | GLXMAW preemergence herbicidal rating ([1]; Rate 0.2500 kg/ha): 9.0 | herbicide rating (0-9) CYPIR ([2]; 0.0320 kg/ha into flood water): 9.0 | herbicide rating (0-9) CYPIR ([2]; 0.0620 kg/ha into flood water): 9.0 | herbicide rating (0-9) CYPIR ([2]; 0.1250 kg/ha into flood water): 9.0 | ORYSAT preemergence herbicidal rating ([3]; Rate 0.0620 kg/ha): 5.0 | ORYSAT preemergence herbicidal rating ([3]; Rate 0.1250 kg/ha): 5.0 | ORYSAT preemergence herbicidal rating ([3]; Rate 0.2500 kg/ha): 6.5 | herbicide rating (0-9) CYPSE ([4]; 0.0320 kg/ha into flood water): 2.0 | herbicide rating (0-9) CYPSE ([4]; 0.0620 kg/ha into flood water): 4.0 | herbicide rating (0-9) CYPSE ([4]; 0.1250 kg/ha into flood water): 7.0 | Postemergence herbicidal rating, AMBEL ([5]; rate 0.0320 kg/ha): 9.0 | Postemergence herbicidal rating, AMBEL ([5]; rate 0.0620 kg/ha): 9.0 | Postemergence herbicidal rating, AMBEL ([5]; rate 0.1250 kg/ha): 9.0 | Postemergence herbicidal rating, CASOB ([6]; rate 0.0320 kg/ha): 5.5 | Postemergence herbicidal rating, CASOB ([6]; rate 0.0620 kg/ha): 7.5 | Postemergence herbicidal rating, CASOB ([6]; rate 0.1250 kg/ha): 9.0 | Postemergence herbicidal rating, CHEAL ([7]; rate 0.0320 kg/ha): 9.0 | Postemergence herbicidal rating, CHEAL ([7]; rate 0.0620 kg/ha): 9.0 | Postemergence herbicidal rating, CHEAL ([7]; rate 0.1250 kg/ha): 9.0 | herbicidal rating, CYPIR ([8]; rate 0.0080 kg/ha): 9.0 | herbicidal rating, CYPIR ([8]; rate 0.0320 kg/ha): 9.0 | herbicidal rating, CYPIR ([8]; rate 0.1250 kg/ha): 9.0 | herbicidal rating, ECHORC ([9]; rate 0.0080 kg/ha): 6.0 | herbicidal rating, ECHORC ([9]; rate 0.0320 kg/ha): 9.0 | herbicidal rating, ECHORC ([9]; rate 0.1250 kg/ha): 9.0 | TRZAWR preemergence herbicidal rating ([10]; Rate 0.0620 kg/ha): 3.5 | TRZAWR preemergence herbicidal rating ([10]; Rate 0.1250 kg/ha): 4.0 | TRZAWR preemergence herbicidal rating ([10]; Rate 0.2500 kg/ha): 5.0 | IPOHE preemergence herbicidal rating ([11]; Rate 0.0620 kg/ha): 8.0 | IPOHE preemergence herbicidal rating ([11]; Rate 0.1250 kg/ha): 9.0 | IPOHE preemergence herbicidal rating ([11]; Rate 0.2500 kg/ha): 9.0 | herbicide rating (0-9) MOOVA ([12]; 0.0320 kg/ha into flood water): 9.0 | herbicide rating (0-9) MOOVA ([12]; 0.0620 kg/ha into flood water): 9.0 | herbicide rating (0-9) MOOVA ([12]; 0.1250 kg/ha into flood water): 9.0 | Postemergence herbicidal rating, ECHCG ([13]; rate 0.0320 kg/ha): 2.0 | Postemergence herbicidal rating, ECHCG ([13]; rate 0.0620 kg/ha): 2.5 | Postemergence herbicidal rating, ECHCG ([13]; rate 0.1250 kg/ha): 4.0 | herbicide rating (0-9) ORYSAT (rice tolerance) ([14]; 0.0320 kg/ha into flood water): 7.0 | herbicide rating (0-9) ORYSAT (rice tolerance) ([14]; 0.0620 kg/ha into flood water): 7.0 | herbicide rating (0-9) ORYSAT (rice tolerance) ([14]; 0.1250 kg/ha into flood water): 7.0 | Postemergence herbicidal rating, ZEAMX ([15]; rate 0.0320 kg/ha): 5.5 | Postemergence herbicidal rating, ZEAMX ([15]; rate 0.0620 kg/ha): 5.8 | Postemergence herbicidal rating, ZEAMX ([15]; rate 0.1250 kg/ha): 6.0 | herbicide rating (0-9) ECHORC ([16]; 0.0320 kg/ha into flood water): 9.0 | herbicide rating (0-9) ECHORC ([16]; 0.0620 kg/ha into flood water): 9.0 | herbicide rating (0-9) ECHORC ([16]; 0.1250 kg/ha into flood water): 9.0 | herbicidal rating, SAGPY ([17]; rate 0.0080 kg/ha): 4.0 | herbicidal rating, SAGPY ([17]; rate 0.0320 kg/ha): 4.0 | herbicidal rating, SAGPY ([17]; rate 0.1250 kg/ha): 5.5 | herbicide rating (0-9) SAGPY ([18]; 0.0320 kg/ha into flood water): 4.0 | herbicide rating (0-9) SAGPY ([18]; 0.0620 kg/ha into flood water): 7.0 | herbicide rating (0-9) SAGPY ([18]; 0.1250 kg/ha into flood water): 9.0 | Postemergence herbicidal rating, ORYSAT ([19]; rate 0.0320 kg/ha): 3.5 | Postemergence herbicidal rating, ORYSAT ([19]; rate 0.0620 kg/ha): 3.5 | Postemergence herbicidal rating, ORYSAT ([19]; rate 0.1250 kg/ha): 5.0
